Values quoted from earlier work in patent publication US20240023548A1, “TAU-FLUVALINATE COMPOSITIONS” (Adama Makhteshim Ltd., priority 2020, published 2024).

CC(C)[C@@H](Nc1ccc(C(F)(F)F)cc1Cl)C(=O)OC(C#N)c1cccc(Oc2ccccc2)c1 (some centres unmarked) [Tau-fluvalinate, tau-fluvalinate]
Solubility in organic solvents (organic solvents): soluble in organic solvents | Solubility in water (water): low solubility in water
